# pKi: −log10 of the molar value.
# Target: c-Met (Homo sapiens, UniProt P08581)
# Assay: Ki determination for the inhibition of c-Met (standard radiometric kinase assay)
# Format: biochemical
# Details: radiometric 33P-ATP assay, 1.0 nM c-Met, 35 μM ATP, 0.5 mg/mL polyE4Y, competitive tight-binding fit
# Experimental: Ki Determination for the Inhibition of c-Met
# Compounds of the invention were screened for their ability to inhibit c-Met kinase activity using a standard radiometric assay. Briefly, in this kinase assay the transfer of the terminal ^33P-phosphate in ^33P-ATP to substrate polyE4Y is interrogated. The assay was carried out in 96-well plates to a final volume of 100 μL per well containing 1.0 nM c-Met, 100 mM HEPES (pH 7.5), 10 mM MgCl2, 25 mM NaCl, 0.01% BSA, 1 mM DTT, 0.5 mg/mL polyE4Y, and 35 μM ATP. Accordingly, compounds of the invention were dissolved in DMSO to make 10 mM initial stock solutions. Serial dilutions in DMSO were then made to obtain the final solutions for the assay. A 1.5 μL aliquot of DMSO or inhibitor in DMSO was added to each well. The reaction was initiated by the addition of ^33P-ATP and polyE4Y (obtained from Sigma). After 20 min, the reaction was quenched with 50 μL of 30% trichloroacetic acid (TCA) containing 4 mM ATP. The reaction mixture was transferred to the 0.66 mm GF filter plates (Corning) and washed three times with 5% TCA. Following the addition of 50 μL of Ultimate Gold™ high efficiency scintillant (Packard Bioscience), the samples were counted in a Packard TopCount NXT Microplate Scintillation and Luminescence Counter (Packard BioScience). The Ki values were calculated using Microsoft Excel Solver macros to fit the data to the kinetic model for competitive tight-binding inhibition.
# Chain of c-Met (P08581 25-1390): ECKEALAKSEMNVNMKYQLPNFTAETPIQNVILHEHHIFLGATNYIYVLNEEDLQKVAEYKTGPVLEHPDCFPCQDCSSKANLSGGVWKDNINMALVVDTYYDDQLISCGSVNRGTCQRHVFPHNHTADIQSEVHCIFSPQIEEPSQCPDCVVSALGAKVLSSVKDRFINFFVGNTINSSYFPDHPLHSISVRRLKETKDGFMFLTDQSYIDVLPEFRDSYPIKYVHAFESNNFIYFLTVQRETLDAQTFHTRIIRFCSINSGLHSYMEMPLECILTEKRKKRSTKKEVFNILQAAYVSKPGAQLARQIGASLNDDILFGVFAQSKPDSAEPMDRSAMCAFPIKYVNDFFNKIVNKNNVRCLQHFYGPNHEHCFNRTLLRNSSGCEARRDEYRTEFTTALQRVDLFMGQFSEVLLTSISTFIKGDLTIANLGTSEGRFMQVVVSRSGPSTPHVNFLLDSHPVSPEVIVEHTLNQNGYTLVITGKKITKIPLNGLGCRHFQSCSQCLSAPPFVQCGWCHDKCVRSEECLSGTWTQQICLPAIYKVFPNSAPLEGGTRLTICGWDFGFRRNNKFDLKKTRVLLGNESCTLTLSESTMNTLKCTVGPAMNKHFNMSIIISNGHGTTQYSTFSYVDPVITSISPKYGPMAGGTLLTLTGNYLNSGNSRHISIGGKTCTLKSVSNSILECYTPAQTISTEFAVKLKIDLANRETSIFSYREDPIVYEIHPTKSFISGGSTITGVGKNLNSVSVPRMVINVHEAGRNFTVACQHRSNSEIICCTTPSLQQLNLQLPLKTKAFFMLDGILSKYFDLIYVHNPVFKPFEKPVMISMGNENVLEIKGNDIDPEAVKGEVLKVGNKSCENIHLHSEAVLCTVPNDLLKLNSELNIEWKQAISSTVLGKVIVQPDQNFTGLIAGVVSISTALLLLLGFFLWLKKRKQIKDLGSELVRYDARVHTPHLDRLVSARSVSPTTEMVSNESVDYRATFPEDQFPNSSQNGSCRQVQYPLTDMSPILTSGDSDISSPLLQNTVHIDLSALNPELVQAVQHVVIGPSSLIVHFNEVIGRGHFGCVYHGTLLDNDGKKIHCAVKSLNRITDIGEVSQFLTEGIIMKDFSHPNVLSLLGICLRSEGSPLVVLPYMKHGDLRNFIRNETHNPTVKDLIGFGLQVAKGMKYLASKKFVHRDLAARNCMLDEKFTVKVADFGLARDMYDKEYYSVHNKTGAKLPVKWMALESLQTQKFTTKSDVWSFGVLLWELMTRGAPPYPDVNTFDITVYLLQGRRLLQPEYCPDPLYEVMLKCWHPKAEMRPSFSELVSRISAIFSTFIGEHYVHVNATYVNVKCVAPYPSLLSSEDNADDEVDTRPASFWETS
smiles,measurement,value
C[C@@H](NC(=O)c1nc(-c2ccc(C3(O)CCNCC3)cc2)cnc1N)c1nnc2ccc(Nc3cccc(Cl)c3)nn12 [Compound 68],pKi,≥ 6.60
C[C@@H](NC(=O)c1nc(-c2cccc(N3CCNCC3)c2)cnc1N)c1nnc2ccc(Nc3cccc(Cl)c3)nn12 [Compound 69],pKi,≥ 6.60
C[C@@H](NC(=O)c1nc(-c2ccc(CN3CCCC3)c(F)c2)cnc1N)c1nnc2ccc(Nc3cccc(Cl)c3)nn12 [Compound 70],pKi,≥ 6.60
CCOc1ccc2nnc([C@@H](C)NC(=O)c3nc(-c4ccc(CN5CCCC5)cc4)cnc3N)n2n1 [Compound 71],pKi,5.60 to 6.60
C[C@@H](NC(=O)c1nc(-c2ccc(N3CCNCC3)cc2)cnc1N)c1nnc2ccc(Nc3cccc(Cl)c3)nn12 [Compound 72],pKi,≥ 6.60
C[C@@H](NC(=O)c1nc(-c2ccccc2)cnc1N)c1nnc2sc(N)nn12 [Compound 74],pKi,5.60 to 6.60
Cc1nn2c([C@@H](C)NC(=O)c3nc(-c4ccccc4)cnc3N)nnc2s1 [Compound 75],pKi,5.60 to 6.60
C[C@@H](NC(=O)c1nc(-c2ccc(CN(C)C)cc2)cnc1N)c1nnc2ccc(Nc3cccc(Cl)c3)nn12 [Compound 76],pKi,≥ 6.60
C[C@@H](NC(=O)c1nc(-c2cccc(C3CCNCC3)c2)cnc1N)c1nnc2ccc(Nc3cccc(Cl)c3)nn12 [Compound 77],pKi,≥ 6.60
CNCc1ccc(-c2cnc(N)c(C(=O)N[C@H](C)c3nnc4ccc(Nc5cccc(Cl)c5)nn34)n2)cc1 [Compound 78],pKi,≥ 6.60
Cc1ccc2nnc([C@@H](C)NC(=O)c3nc(-c4ccc(CN5CCCC5)cc4)cnc3N)n2n1 [Compound 79],pKi,5.60 to 6.60
C[C@@H](NC(=O)c1nc(-c2ccc(CN3CCCC3)cc2)cnc1N)c1nnc2ccc(-c3ccccc3)nn12 [Compound 80],pKi,≥ 6.60
C[C@@H](NC(=O)c1nc(-c2cccs2)cnc1N)c1nnc2ccc(-c3ccccc3)nn12 [Compound 81],pKi,5.60 to 6.60
C[C@@H](NC(=O)c1nc(-c2cnn(C)c2)cnc1N)c1nnc2ccc(-c3ccccc3)nn12 [Compound 82],pKi,5.60 to 6.60
C[C@@H](NC(=O)c1nc(-c2cnn(C3CCNCC3)c2)cnc1N)c1nnc2ccc(-c3ccccc3)nn12 [Compound 83],pKi,≥ 6.60

# Reference: patent US8481538B2, “Heterocyclic inhibitors of c-Met and uses thereof” (Vertex Pharmaceuticals Incorporated, priority 2006, dated 2013)
